In patent US11771692B2, “N-hydroxyethyl didehydroazapodophyllotoxins as GBP1 inhibitors and methods of overcoming treatment resistance in cancer” (The Board of Trustees of the Leland Stanford Junior …, priority 2018, dated 2023):
“Also recorded” adds a separate entry of the source. Read-outs that look alike come from different tables or passages of the source.

How the values were obtained:
SCC-90 cells = experiment: Cell cycle analysis of SCC-90 cells, SU093/radiation combination; assay type: cell-based; conditions: SCC-90, SU093 50 nM and/or 10 Gy, 24 h
Excerpt: The potential for GBP1 inhibition and radiosensitzation in head and neck cancer cells was also investigated.

GBP1 and PIM1 = experiment: Immunoblotting of GBP1 and PIM1 expression in OVCAR8 cells; assay type: cell-based
SKOV3 = experiment: MTT cytotoxicity assay, SKOV3; assay type: cell-based; conditions: Homo sapiens, SK-OV-3; SKOV3 ovarian cancer cell line
Excerpt: (§1) FIG. 3, panels A-E. FIG. 3, panel A illustrates the effects of SU093 on survival of human normal HEK293 cell line and ovarian cancer cell lines OVCAR8 & SKOV3 cells via MTT assay. FIG. 3, panel B illustrates the effect of SU093 on GBP1 and PIM1 expression in OVCAR8 cells. […] FIG. 3, panel D illustrates quantification of overexpression and knockdown of GBP1 gene in stably transfected OVCAR8 cells. FIG. 3, panel E illustrates cytotoxicity of SU093 as evaluated in GBP1-OV, GBP1-WT and GBP1-KD OVCAR8 via MTT assay.
(§2) Furthermore, OVCAR8 cells with overexpressed (OV) and knockdown (KD) of GBP1 gene were created (FIG. 3, panel D) and cell viability experiments were performed on GBP1-WT (wild-type), GBP1-OV and GBP1-KD OVCAR8 cells at different doses of SU093.

OVCAR8 cells [1] = experiment: Colony formation (clonogenic) assay in OVCAR8 cells; assay type: cell-based
OVCAR8 cells [2] = experiment: Active mitochondrial mass (MitoTracker Red CMXRos) in OVCAR8 cells; assay type: cell-based
Excerpt: FIG. 4, panel A illustrates a histogram of cell cycle distribution of propidium iodide (PI)-stained cells. […] FIG. 4, panel C illustrates the effect of SU093 on cell cycle and cell death regulators analyzed by immunostaining. FIG. 4, panel D illustrates mitochondria stained with MitoTracker Red CMXRos and visualized by confocal microscopy indicating mitochondrial dysfunction in OVCAR8 cells. FIG. 4, panel E illustrates the effect of SU093 on active mitochondrial mass in OVCAR8 cells.
as §2

OVCAR8-PRes cells = experiment: Growth inhibition of paclitaxel-resistant OVCAR8-PRes cells; assay type: cell-based
Excerpt: The cytotoxic effect of SU093 and paclitaxel combination treatment was also studied (FIG. 5, panel E).

[3] = Maximum tolerable dose study, 14 days IP; assay type: in vivo, mice
Description: FIG. 7, panel A illustrates in vivo PK studies, C57BL/6 mice. Drug concentration in plasma was quantified at different time points using LCMS after a single IP injection of SU093. FIG. 7, panel B illustrates the drug concentration in harvested ovaries and liver of C57BL/6 mice after 14 days of administration with SU093 (100 mg/kg) by daily IP injection.
To determine the maximum tolerable dose of an exemplary GBP1 inhibitor, SU093 was administered to C57BL6 female mice (n=10) intraperitoneally at 100 mg/kg for 14 days. […] At the end of the 14th day, mice were sacrificed and organs were harvested.

MCF7 = experiment: MTT cytotoxicity assay, MCF7; assay type: cell-based; conditions: Homo sapiens, Breast
Excerpt: (§3) It was observed that SU093 was highly cytotoxic for all cell lines tested with IC50 values in the nanomolar range.

GBP1 [4] = experiment: cell-based reporter assay, OVCAR-8 stably transfected with GBP-1-luciferase; conditions: OVCAR-8 GBP-1-luciferase
Excerpt: Exemplary compounds (1)-(17) and previously identified compound SU093 (Andreoli, M., Persico, M.; Kumar, A.; Orteca, N.; Kumar, V.; Pepe, A.; Mahalingam, S.; Alegria, A. E.; Petrella, L.; Sevciunaite, L.; Camperchioli, A.; Mariani, M.; Di Dato, A.; Novellino, E.; Scambia, G., Malhotra, S. V.; Ferlini, C.; Fattorusso, C., Identification of the First Inhibitor of the GBP1:PIM1 Interaction. Implications for the Development of a New Class of Anticancer Agents against Paclitaxel Resistant Cancer Cells. Journal of Medicinal Chemistry 2014, 57 (19), 7916-7932) were tested for GBP1 inhibition using a cell-based reporter assay in ovarian cancer cell line OVCAR-8 stably transfected with GBP-1-luciferase. Tables 1 and 2 below outlines the percentage of GBP1 expression in OVCAR-8 cells for each of the 17 compounds tested.

DU145 = experiment: MTT cytotoxicity assay, DU145; assay type: cell-based; conditions: Homo sapiens, DU-145, Prostate
Excerpt: as §3

B2M = B2M expression in SCC-90 cells; assay type: cell-based; conditions: SCC-90 cells treated with SU093
Excerpt: Down-regulation of Major Histocompatibility Complex class I molecules (MHC-I) expression is a widespread phenomenon used by tumor cells to escape antitumor T-cell-mediated immune responses. Reduction in B2-microglobulin (B2M, a molecule associated with MHC-I) helps cancer cells to hide them from immune system (Hicklin, D. J.; Marincola, F. M.; Ferrone, S., HLA class I antigen downregulation in human cancers: T-cell immunotherapy revives an old story. Molecular Medicine Today 1999, S (4), 178-186.) In experiments conducted herein, reduced expression B2M in GBP1-OV cells was observed (FIG. 1, panel F).

HCT116 = experiment: MTT cytotoxicity assay, HCT116; assay type: cell-based; conditions: Homo sapiens, HCT-116, Colorectal
Excerpt: as §3

GBP1 [5] = experiment: Confocal microscopy immunostaining of GBP1 and β-tubulin in OVCAR8 cells; assay type: cell-based; conditions: OVCAR8, 1 nM SU093 for 6 h
ID-8 tumor xenograft = experiment: Ovarian ID-8 tumor xenograft in C57BL6 mice; assay type: in vivo
Excerpt: An immunocompetent syngeneic mouse model was used to evaluate in vivo antitumor effect of SU093 and SU056 (also referred to herein as Compound (I)) for ovarian cancer. C57BL6 female mice (n=5/group) were subcutaneously injected in the right flank with 5×10^6 ID-8 cells mixed with matrigel. From the day following xenograft implantation, mice were monitored regularly for tumor growth and once the tumors reached approximately 100 mm^3, the mice were randomly divided into three groups and respective treatments were given.
Group I (vehicle control): 100 μl of 10% PEG300 (w/v) in saline;
Group II: mice treated with SU093 (20 mg/kg); and
Group III: mice treated with SU056 (20 mg/kg).
Doses were administered intraperitoneally (IP) for 7 days/week for 42 days and the mice were sacrificed on day 43. Tumor sizes were measured twice weekly using digital caliper and tumor volume was calculated by the formula: 0.5236 L1 (L2)^2, where L1 is long diameter, and L2 is short diameter.

HEK293 = experiment: MTT cytotoxicity assay, normal HEK293 cells; assay type: cell-based
Excerpt: as §1, §2

[6] = ID-8, 20 mg/kg IP daily, 42 days, vs control

COc1ccc2c(c1)N(CCO)C1=C(C(=O)OC1)C2c1ccccc1 (centres unmarked) [SU093]
cell cycle, SU093/radiation combination (SCC-90 cells): G2/M phase arrest followed by cell death; also recorded: increase in G2/M phase arrest, followed by apoptosis
GBP1 and PIM1 expression (GBP1 and PIM1): inhibits GBP1 and PIM1 expressions in a dose-dependent manner
IC50 (SKOV3): 2.68 nM
colony formation / clonogenic potential (OVCAR8 cells [1]): dose-dependent inhibition of clonogenic potential; also recorded: dose-dependent inhibition of colony formation
active mitochondrial mass (OVCAR8 cells [2]): significantly diminished active mitochondrial mass
inhibition at 0.015 µM (OVCAR8-PRes cells; 15 nM SU093, read-out: inhibition in the cell growth): 50%
inhibition at 0.015 µM (OVCAR8-PRes cells; SU093 (15 nM) and paclitaxel (2 μM), read-out: growth inhibition, combination treatment): 80%
CHEM-22 panel analysis ([3]; 100 mg/kg for 14 days): only acute liver toxicity
weight loss or sign of toxicity ([3]; C57BL6 female mice, 100 mg/kg IP, 14 days): no significant weight loss or sign of toxicity
concentration at 14 days ([3]; female, C57BL/6, mouse, ovaries, intraperitoneal, 100 mg/kg daily IP, after 14 days, LCMS, read-out: concentration in the target organ (ovaries)): 3.73 µg/mL
IC50 (MCF7): 6.23 nM
% GBP1 expression OVCAR-8 @5 nM (GBP1 [4]; 5 nM): 60.3%
% GBP1 expression OVCAR-8 @10 nM (GBP1 [4]; 10 nM): 51.0%
IC50 (DU145): 1.12 nM
B2M expression (B2M): induced expression of B2M
IC50 (HCT116): 1.24 nM
GBP1 nuclear translocation and tubulin expression (GBP1 [5]): inhibits the nuclear translocation of GBP1 protein and reduces the tubulin expression; also recorded: blocking its nuclear translocation and reducing tubulin expression
gross sign of toxicity (body weight and diet consumption) (ID-8 tumor xenograft; 20 mg/kg IP daily, 42 days): did not show any gross sign of toxicity
liver toxicity parameters (AST, ALT, Alkaline phosphatase) (ID-8 tumor xenograft; ELISA, end of 42 days, vs control): No significant difference
reduction in tumor volume (ID-8 tumor xenograft; [6]): 37.5%
tumor weight decreased (ID-8 tumor xenograft; [6]): 39.65%
tumor volume/mouse (ID-8 tumor xenograft; ID-8, 20 mg/kg IP daily, end of 6 weeks): 318.81±26.09 mm^3
cytotoxicity for normal cell line (HEK293): no cytotoxicity
